Measured values published in article PMC11272598, “RG7774 (Vicasinabin), an orally bioavailable cannabinoid receptor 2 (CB2R) agonist, decreases retinal vascular permeability, leukocyte adhesion, and ocular inflammation in animal models” (Frontiers in Pharmacology, 2024).

Columns and labels:
[1] = Brain:plasma ratio after oral administration (GLP toxicology studies, data on file); assay type: in vivo; conditions: rat, rats, read-out: Mean brain:plasma ratios
[2] = biological target: Mouse CB1R (Mus musculus, UniProt P47746); experiment: Mouse cAMP assay in N18TG2 cells; assay type: cell-based; conditions: RG7774 10 µM, N18TG2 cells; read-out: Mean ± SEM % inhibition of control, Mouse CB1R (cAMP assay)
Sequence of Mouse CB1R (P47746 whole entry): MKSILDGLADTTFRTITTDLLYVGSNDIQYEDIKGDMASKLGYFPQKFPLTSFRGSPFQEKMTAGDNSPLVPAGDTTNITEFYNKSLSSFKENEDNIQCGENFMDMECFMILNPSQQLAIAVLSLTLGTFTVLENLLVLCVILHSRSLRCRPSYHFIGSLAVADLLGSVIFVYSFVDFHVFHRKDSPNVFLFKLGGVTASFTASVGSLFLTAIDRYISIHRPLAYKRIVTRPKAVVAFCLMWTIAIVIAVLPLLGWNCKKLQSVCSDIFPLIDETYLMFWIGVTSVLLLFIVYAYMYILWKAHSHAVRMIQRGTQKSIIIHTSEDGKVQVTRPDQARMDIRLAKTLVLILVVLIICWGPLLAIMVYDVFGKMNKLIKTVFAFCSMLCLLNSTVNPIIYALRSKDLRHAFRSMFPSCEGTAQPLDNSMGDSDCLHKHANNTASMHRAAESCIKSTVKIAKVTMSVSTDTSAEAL
Procedure: The effect of RG7774 on the forskolin-stimulated accumulation of cAMP was determined using the LANCE ULTRAcAMP kit (PerkinElmer Life Sciences, MA, USA), according to the manufacturer’s instructions. Briefly, N18TG2 cells preincubated for 30 min with 1-methyl-3-isobutylxanthine (1 mM) were added to 0.5 µM forskolin preincubated with or without RG7774 for 15 min. Reactions were incubated for 30 min at 37°C and Time-resolved fluorescence was measured using a Victor V Multilabel counter (PerkinElmer Life Sciences). Data were transformed into cAMP concentrations using a standard curve.

[3] = Microsomal clearance; assay type: in vitro ADME; conditions: pH 7.4
Procedure: Commercially-available ultra-pooled microsome preparations from human (150 different donors) (BD UltraPool HLM 150, Beckton Dickinson, Japan) or mouse liver tissues (Beckton Dickinson) were incubated in 96-deep-well plates containing 0.1 M phosphate buffer (pH 7.4) at 37 °C on a TECAN liquid handling system equipped with Teleshake shakers and a warming device (Tecan Group Ltd., Switzerland). The NADPH regenerating system consisted of 30 mM glucose-6-phosphate disodium salt hydrate, 10 mM NADP, 30 mM MgCl2 × 6 H2O, and 5 mg/mL glucose-6-phosphate dehydrogenase (Roche Diagnostics, IN, USA) in 0.1 M potassium phosphate buffer (pH 7.4). The microsome mixture (0.5 mg/mL) was incubated with 1 μM RG7774 in 96-well plates at 37 °C. After 1, 3, 6, 9, 15, 25, 35, and 45 min, aliquots of the incubations (40 μL) were removed and reactions were quenched with 1:3 (v/v) acetonitrile containing internal standards. Samples were cooled, centrifuged, and analyzed by liquid chromatography-mass spectroscopy (LC-MS)/mass spectroscopy (MS). Log peak area ratios (test compound peak area/internal standard peak area) were plotted against incubation time with a linear fit. The calculated slope was used to determine the intrinsic clearance: CLint (μL/min/mg protein) = –slope (min–1) × 1000/protein concentration, mg/mL.

[4] = Parallel artificial membrane permeability assay (PAMPA); assay type: physicochemical
Procedure: A 96-well microtiter plate was filled with aqueous buffer (typically 0.05 M Tris, pH 7.4, or 0.05 M phosphate, pH 6.5) and covered with a filter plate in a sandwich construction. The hydrophobic filter material (Durapore/Millipore; pore size 0.22–0.45 μm) covering the first 48 wells (sample) was impregnated with 1%–20% lecithin dissolved in dodecane, hexadecane, and 1,9-decadiene. The filter cover for the remaining 48 wells (reference) was wetted with 4–5 μL of a 50% (v/v) methanol/buffer solution. The transfer of RG7774 and reference substances from the donor compartment, through the lipid-infused artificial membrane, into the acceptor compartment was initiated by transferring 100–200 μL of a 250 or 500 μM stock solution to filter plates covering the sample and reference wells, respectively. The maximum DMSO content of the stock solutions was 5%. The permeation coefficient (Peff) was determined as previously described by Kansy et al. 1998 [3].

[5] = test system: STZ-induced diabetes retinal vascular permeability; experiment: Rats with STZ-induced type 1 diabetes (fluorophotometry); assay type: in vivo, Long Evans rats; conditions: STZ diabetic rats, 10 mg/kg daily oral gavage, 6 weeks after STZ, normalized to plasma
Procedure: Twenty-six male Long Evans rats (outbred) (Charles River Laboratories, Sulzfeld, Germany) aged 7 weeks and weighing 250–270 g at the beginning of the study were housed in individually ventilated cages with a maximum density of n = 2 rats per cage with the same sex and monitored daily. Bedding for diabetic animals was changed daily. The room was kept at 20°C–24°C with 50%–60% humidity and a 12/12 h light-dark cycle. Rats received a standard diet and water ad libidum, in addition to soaked food or soft diet. For animal welfare and for dosing purposes, animals were weighed every other day. Rats were sacrificed if weight loss was greater than 20% of the original weight, or more than 20% of body gain within 1 week.
Animals were fasted overnight and injected the following morning with IP 60 mg/kg (60 mg/mL at 1 mL/kg) STZ as reported previously ([Kim et al., 2007]; [Furman, 2015]) in 0.05 M sodium citrate buffer (pH 4.5). […]
To quantify fluorotron measurements, raw data were generated, exported as .txt files, and plotted using Microsoft Excel. The average AUC was calculated for 5 steps in the region of the scans corresponding to the vitreous peak. […] All data are expressed as mean ± SEM ng/mL ratios of vitreous:plasma fluorescein. Fluorophotometry data were analyzed using 2-way ANOVA followed by Newman–Keuls multiple comparisons test. […]

In the case of `Cn1nnnc1Cn1nnc2c(N3CC[C@H](O)C3)nc(C(C)(C)C)nc21` [RG7774, (S)-1-(5-tert-butyl-3-[(1-methyl-1H-tetrazol-5-yl)methyl]-3H-[1,2,3]triazolo[4,5-d]pyrimidin-7-yl)pyrrolidin-3-ol], the Kp [1] is reported as 0.0955 to 0.213, the inhibition at 10 µM [2] is reported as 16.6% and the microsomal CLint at 1 µM ([3]; human) is reported as 21.7 µL/min/mg. For the same compound, the microsomal CLint at 1 µM ([3]; mouse, mouse liver microsomes) was 15 µL/min/mg, the microsomal CLint at 1 µM ([3]; rat, rat microsomes) was 25 µL/min/mg and the “PAMPA P eff” value [4] was 9.7 10^−6 cm s^−1. For the same compound, the PAMPA acceptor compartment [4] was 23%, the PAMPA donor compartment [4] was 59% and the PAMPA membrane [4] was 18%. For the same compound, the vitreous fluorescein [5] was 25.6 ng/mL.
